{
  "source": "patent US11865098B1",
  "about": "“Methods and compositions for treating excessive sleepiness” (Axsome Malta Ltd., priority 2017, dated 2024)",
  "format_in_all_cases": "in vivo, human",
  "key": {"[1]": {"test_system": "adult patients with OSA and ES", "assay": "SF-36v2 health-related quality of life, 12-week parallel study in OSA", "conditions": "week 12", "protocol": "This was a 12-week, double-blind, placebo-controlled, parallel-design study. Patients were randomized (1:1:2:2:2) to APC 37.5 mg, 75 mg, 150 mg, or 300 mg, or placebo for 12 weeks, and were stratified by adherence or nonadherence with primary OSA therapy.\nThe SF-36 v2 consists of 2 summary scales (Physical Component Summary and Mental Component Summary) and 8 specific health status domains (Physical Function, Role Physical, Bodily Pain, General Health, Vitality, Social Functioning, Role Emotional, Mental Health) (Ware Jr et al., User's Manual for the SF-36v2™ Health Survey (2nd ed). QualityMetric Incorporated (Lincoln, RI); 2007). The EQ-5D-5L consists of 5 questions/dimensions (Mobility, Self-care, Usual Activities, Pain/Discomfort, and Anxiety/Depression) that have 5 response levels each (no problems, slight problems, moderate problems, severe problems, and extreme problems/unable to do) that are used to derive an overall EQ-5D-5L index score (0=death, 1=perfect health), and a health status visual analog scale (VAS) that is anchored at 0 with “the worst health you can imagine” and at 100 with “the best health you can imagine.” (The EuroQol Group. EQ-5D-5L User Guide. Version 2.1. April 2015. www.eurogol.org/fileadmin/user_upload/Documenten/PDF/Folders_Flyers/EQ-5D-5L_UserGuide_2015.pdf)\nEfficacy analyses were based on the modified intent-to-treat (mITT) population; there was no multiplicity adjustment for the SF-36 v2 or EQ-5D-5L. SF-36 v2 scores were scaled from 0 to 100 (higher scores on all scales represent better health), transformed to norm-based scores using US general-population data from SF-36 Manuals (Ware Jr et al., User's Manual for the SF-36v2™ Health Survey (2nd ed.). QualityMetric Incorporated (Lincoln, RI); 2007), and were analyzed using a mixed-effect model with repeated measures (MMRM); and baseline value of the efficacy endpoint was used to determine differences in changes from baseline. EQ-5D-5L VAS and index-score data were analyzed using an MMRM model. Safety and tolerability were assessed based on treatment-emergent adverse events (TEAEs), vital signs, electrocardiogram test, physical exams, and laboratory tests."}, "[2]": {"test_system": "patients with narcolepsy type 1 or type 2", "assay": "PGI-C, 12-week phase 3 study in narcolepsy", "protocol": "The study was a 12-week, double-blind, randomized, placebo-controlled, parallel-group study. Patients were randomized (1:1:1:1) to receive placebo or APC 75, 150, or 300 mg; randomization was stratified by the presence or absence of cataplexy.\nCo-primary endpoints were change from baseline to week 12 in MWT mean sleep latency and ESS score. The key secondary endpoint was the percentage of patients who reported improvement on the Patient Global Impression of Change (PGI-C) (Guy, ECDEU assessment manual for psychopharmacology, revised. US Department of Health, Education, and Welfare publication (ADM 76-338). Rockville, MD: National Institute of Mental Health; 1976) at week 12. Other secondary and exploratory endpoints included changes on function and quality-of-life and changes in the number of cataplexy attacks per week. Safety evaluation included adverse events, laboratory tests, and vital signs.\nEfficacy analyses were based on the modified intent-to-treat population (mITT), defined as all patients who were randomized, received at least 1 dose of study drug, and had baseline and at least 1 post-baseline evaluation of both MWT and ESS. MWT and ESS were analyzed using a mixed-effect repeated measures (MMRM) model. PGI-C was analyzed using a chi-square test. […]"}, "[3]": {"test_system": "adults with OSA and excessive sleepiness", "assay": "PGI-C and CGI-C, phase 3 randomized withdrawal study in OSA", "conditions": "Double-Blind Withdrawal Phase, switched to placebo compared with stayed on APC", "protocol": "The study was a double-blind, placebo-controlled, enriched, randomized withdrawal design (FIG. 1). In the Titration Phase (weeks 1-2), patients started on a once-daily dose of APC 75 mg and could be titrated up or down every 3 days to reach a maximum tolerated dose of APC 75, 150, or 300 mg. In the Stable-Dose Phase (weeks 3-4), patients continued to receive the dose that they were titrated to in the Titration Phase for 2 weeks. […]\nEfficacy was based on change from week 4 to 6 on the co-primary endpoints of MWT and ESS and percentage of patients reported as improved on the PGI-C and Clinician Global Impression of Change (CGI-C); assessed on a 7-point scale from 1 (very much improved) to 7 (very much worse).\nMWT and ESS data were analyzed using a mixed-effect model repeated measures (MMRM); PGI-C and CGI-C were evaluated using a chi-square test. […] Safety and tolerability were evaluated based on treatment-emergent adverse events (TEAEs), vital signs, and laboratory values."}},
  "data": [
    {"smiles": "NC(=O)OC[C@H](N)Cc1ccccc1", "note": "[JZP-110, (R)-2-amino-3-phenylpropyl carbamate]", "values": [
      {"measurement": "SF-36v2 Role Physical, General Health, Social Functioning, Role Emotional vs placebo", "setting": "[1]; 150 mg", "value": "significantly greater changes from baseline relative to placebo"},
      {"measurement": "SF-36v2 Role Physical and Vitality domains and Physical Component Summary Scale vs placebo", "setting": "[1]; 300 mg", "value": "significantly greater improvements relative to placebo"},
      {"measurement": "SF-36v2 Mental Component Summary scores vs placebo", "setting": "[1]; 37.5, 75, 150 mg similar", "value": "only APC 150 mg reaching statistical significance"},
      {"measurement": "SF-36v2 Vitality domain, response vs MCID", "setting": "[1]; 75, 150, and 300 mg", "value": "exceeded the MCID"},
      {"measurement": "SF-36v2 Physical Component Summary Scale, increase vs placebo", "setting": "[1]; 150 and 300 mg", "value": "statistically significant"},
      {"measurement": "SF-36v2 Vitality domain vs placebo", "setting": "[1]; 150 and 300 mg", "value": "statistically significant improvements relative to placebo"},
      {"measurement": "SF-36v2 Physical and Mental Component Summary changes vs MCID", "setting": "[1]", "value": "did not exceed the minimal clinically important difference"},
      {"measurement": "Percentage of patients who reported improvement in overall condition (PGI-C) relative to placebo", "setting": "[2]; all doses (nominal P-value at 75 mg), week 12, mITT", "value": "significantly increased the percentage of patients who reported improvement"},
      {"measurement": "PGI-C improvement, effect at week 1", "setting": "[2]; all doses, as early as week 1", "value": "Statistically significant effects"},
      {"measurement": "Worsening of overall condition on the PGI-C and CGI-C", "setting": "[3]", "value": "Significantly higher percentages of patients who were switched to placebo experienced a worsening of their overall condition"}
    ]}
  ]
}
